According to patent publication US20260356819A1, “OXOISOINDOLINYL-SUBSTITUTED […] DERIVATIVE AND USE THEREOF” (GLUETACS THERAPEUTICS (SHANGHAI) CO., LTD., priority 2023, published 2026):

Columns and labels:
Assay type in all cases: cell-based
Details in all cases: compounds at 50 nM and 500 nM
IKZF1 = target: T1, IKZF1 (Homo sapiens, UniProt Q13422+Q96SW2); experiment: Western blot degradation of IKZF1 in hPBMCs (24 h)
T1 construct: The supernatant was aspirated as the extracted total cell protein; endogenous in cells; host or cells: human peripheral blood mononuclear cells (hPBMCs)
T1 sequence (Q13422 whole entry): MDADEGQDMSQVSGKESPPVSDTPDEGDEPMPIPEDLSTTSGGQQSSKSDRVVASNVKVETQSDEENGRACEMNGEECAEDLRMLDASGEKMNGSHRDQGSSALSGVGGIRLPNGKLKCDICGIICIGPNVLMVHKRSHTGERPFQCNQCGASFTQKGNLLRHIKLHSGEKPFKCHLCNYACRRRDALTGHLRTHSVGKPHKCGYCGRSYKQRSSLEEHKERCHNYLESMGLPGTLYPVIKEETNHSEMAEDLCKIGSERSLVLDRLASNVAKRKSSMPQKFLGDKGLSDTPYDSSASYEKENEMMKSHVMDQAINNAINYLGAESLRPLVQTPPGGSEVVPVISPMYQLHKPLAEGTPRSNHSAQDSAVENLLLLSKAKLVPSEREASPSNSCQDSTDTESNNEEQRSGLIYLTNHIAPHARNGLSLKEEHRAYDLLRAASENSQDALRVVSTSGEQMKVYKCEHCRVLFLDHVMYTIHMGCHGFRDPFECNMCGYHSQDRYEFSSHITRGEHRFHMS
T1 sequence (Q96SW2 whole entry): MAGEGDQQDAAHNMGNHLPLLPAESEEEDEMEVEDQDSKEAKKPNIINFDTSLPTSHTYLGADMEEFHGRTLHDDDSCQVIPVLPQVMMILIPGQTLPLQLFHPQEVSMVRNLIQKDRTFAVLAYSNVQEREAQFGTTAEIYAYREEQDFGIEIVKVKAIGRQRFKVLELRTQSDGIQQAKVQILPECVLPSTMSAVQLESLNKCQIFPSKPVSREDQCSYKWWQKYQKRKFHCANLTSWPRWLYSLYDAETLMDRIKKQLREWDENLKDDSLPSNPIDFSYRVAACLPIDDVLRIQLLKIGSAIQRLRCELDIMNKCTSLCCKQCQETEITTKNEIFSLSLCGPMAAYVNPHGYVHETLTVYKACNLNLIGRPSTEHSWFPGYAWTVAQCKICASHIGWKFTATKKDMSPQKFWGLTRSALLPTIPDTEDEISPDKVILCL
T1 sequence (Q16531 whole entry partner): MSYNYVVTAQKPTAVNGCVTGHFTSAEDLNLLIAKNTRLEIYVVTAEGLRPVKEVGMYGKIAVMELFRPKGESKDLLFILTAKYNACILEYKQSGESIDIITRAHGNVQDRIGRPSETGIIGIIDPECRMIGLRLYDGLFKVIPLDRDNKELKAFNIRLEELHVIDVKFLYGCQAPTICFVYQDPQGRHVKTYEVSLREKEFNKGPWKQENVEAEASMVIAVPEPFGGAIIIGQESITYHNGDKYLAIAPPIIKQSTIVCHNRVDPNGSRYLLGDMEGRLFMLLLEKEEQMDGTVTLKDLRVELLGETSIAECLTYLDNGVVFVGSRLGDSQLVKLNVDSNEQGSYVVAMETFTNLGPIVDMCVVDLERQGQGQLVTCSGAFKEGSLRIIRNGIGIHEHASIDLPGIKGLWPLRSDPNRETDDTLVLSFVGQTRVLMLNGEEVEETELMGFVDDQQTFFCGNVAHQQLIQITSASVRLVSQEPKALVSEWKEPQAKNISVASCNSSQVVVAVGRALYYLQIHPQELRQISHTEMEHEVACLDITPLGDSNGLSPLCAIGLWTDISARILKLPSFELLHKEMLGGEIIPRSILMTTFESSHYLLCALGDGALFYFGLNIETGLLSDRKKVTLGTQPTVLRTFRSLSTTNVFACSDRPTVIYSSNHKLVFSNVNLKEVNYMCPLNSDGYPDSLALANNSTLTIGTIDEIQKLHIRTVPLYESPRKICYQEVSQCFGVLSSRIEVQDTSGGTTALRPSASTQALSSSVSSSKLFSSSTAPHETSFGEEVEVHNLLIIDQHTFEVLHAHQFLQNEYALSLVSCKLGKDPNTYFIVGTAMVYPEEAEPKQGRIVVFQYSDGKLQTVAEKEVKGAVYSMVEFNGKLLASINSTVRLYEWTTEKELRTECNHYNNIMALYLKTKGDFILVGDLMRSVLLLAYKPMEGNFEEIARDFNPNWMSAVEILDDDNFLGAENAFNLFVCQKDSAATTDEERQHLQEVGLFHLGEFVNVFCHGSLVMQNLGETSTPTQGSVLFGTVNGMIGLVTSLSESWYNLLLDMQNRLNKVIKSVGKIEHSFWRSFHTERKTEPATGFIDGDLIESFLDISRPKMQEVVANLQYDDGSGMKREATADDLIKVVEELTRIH
In short: (§1)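 Thawed human PBMCs, 1×10^6 cells/mL; cpd 50 nM or 500 nM, 24 h; RIPA lysis, BCA, SDS-PAGE, NC transfer, immunoblot. Readout: grayscale/internal control → % remaining; degradation = 1 − remaining.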

GSPT1 = target: T2, GSPT1 (Homo sapiens, UniProt P15170+Q96SW2); experiment: Western blot degradation of GSPT1 in hPBMCs (24 h)
T2 construct: The supernatant was aspirated as the extracted total cell protein; endogenous in cells; host or cells: human peripheral blood mononuclear cells (hPBMCs)
T2 sequence (P15170 whole entry): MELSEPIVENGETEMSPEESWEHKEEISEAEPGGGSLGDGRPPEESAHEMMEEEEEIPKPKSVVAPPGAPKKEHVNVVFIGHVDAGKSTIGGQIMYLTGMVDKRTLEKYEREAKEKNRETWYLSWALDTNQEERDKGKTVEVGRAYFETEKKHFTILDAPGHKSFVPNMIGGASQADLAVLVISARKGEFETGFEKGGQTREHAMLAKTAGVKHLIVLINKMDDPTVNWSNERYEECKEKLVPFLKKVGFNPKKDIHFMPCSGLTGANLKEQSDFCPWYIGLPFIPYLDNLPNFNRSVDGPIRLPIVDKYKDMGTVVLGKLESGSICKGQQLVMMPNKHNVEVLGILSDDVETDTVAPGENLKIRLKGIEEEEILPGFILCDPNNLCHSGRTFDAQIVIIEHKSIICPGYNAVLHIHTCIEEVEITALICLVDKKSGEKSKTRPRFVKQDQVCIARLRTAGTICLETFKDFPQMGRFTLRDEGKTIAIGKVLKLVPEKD
T2 sequence (Q96SW2 whole entry): as the sequence (Q96SW2 whole entry) above
T2 sequence (Q16531 whole entry partner): as the sequence (Q16531 whole entry partner) above
In short: as §1

IKZF3 = target: T3, IKZF3 (Homo sapiens, UniProt Q96SW2+Q9UKT9); experiment: Western blot degradation of IKZF3 in hPBMCs (24 h)
T3 construct: The supernatant was aspirated as the extracted total cell protein; endogenous in cells; host or cells: human peripheral blood mononuclear cells (hPBMCs)
T3 sequence (Q9UKT9 whole entry): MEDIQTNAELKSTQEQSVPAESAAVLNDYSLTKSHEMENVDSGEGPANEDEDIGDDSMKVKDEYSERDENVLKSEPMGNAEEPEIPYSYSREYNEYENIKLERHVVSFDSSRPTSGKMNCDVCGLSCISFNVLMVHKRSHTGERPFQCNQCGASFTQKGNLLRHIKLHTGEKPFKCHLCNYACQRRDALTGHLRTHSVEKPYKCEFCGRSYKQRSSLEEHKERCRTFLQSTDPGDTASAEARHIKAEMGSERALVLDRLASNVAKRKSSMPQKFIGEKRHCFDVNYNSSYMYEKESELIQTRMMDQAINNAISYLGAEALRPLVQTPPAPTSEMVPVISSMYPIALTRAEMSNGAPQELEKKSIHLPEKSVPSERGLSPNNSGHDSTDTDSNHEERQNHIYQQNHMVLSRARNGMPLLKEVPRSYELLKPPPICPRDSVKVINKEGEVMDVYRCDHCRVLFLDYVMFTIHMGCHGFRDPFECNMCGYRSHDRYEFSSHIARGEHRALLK
T3 sequence (Q96SW2 whole entry): as the sequence (Q96SW2 whole entry) above
T3 sequence (Q16531 whole entry partner): as the sequence (Q16531 whole entry partner) above
In short: as §1

CK1α = target: T4, CK1α (Homo sapiens, UniProt P48729+Q96SW2); experiment: Western blot degradation of CK1α in hPBMCs (24 h)
T4 construct: The supernatant was aspirated as the extracted total cell protein; endogenous in cells; host or cells: human peripheral blood mononuclear cells (hPBMCs)
T4 sequence (P48729 whole entry): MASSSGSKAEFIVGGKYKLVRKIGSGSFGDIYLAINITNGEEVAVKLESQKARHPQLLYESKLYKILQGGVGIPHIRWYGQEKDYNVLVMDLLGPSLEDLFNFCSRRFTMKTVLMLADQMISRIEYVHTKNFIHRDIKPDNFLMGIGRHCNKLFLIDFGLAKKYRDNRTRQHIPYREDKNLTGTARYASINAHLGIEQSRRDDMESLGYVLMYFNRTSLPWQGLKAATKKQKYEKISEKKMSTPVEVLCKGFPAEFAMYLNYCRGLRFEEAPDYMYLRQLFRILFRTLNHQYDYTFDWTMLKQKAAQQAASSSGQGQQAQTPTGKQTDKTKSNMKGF
T4 sequence (Q96SW2 whole entry): as the sequence (Q96SW2 whole entry) above
T4 sequence (Q16531 whole entry partner): as the sequence (Q16531 whole entry partner) above
In short: as §1

WEE1 = target: T5, WEE1 (Homo sapiens, UniProt P30291+Q96SW2); experiment: Western blot degradation of WEE1 in hPBMCs (24 h)
T5 construct: The supernatant was aspirated as the extracted total cell protein; endogenous in cells; host or cells: human peripheral blood mononuclear cells (hPBMCs)
T5 sequence (P30291 whole entry): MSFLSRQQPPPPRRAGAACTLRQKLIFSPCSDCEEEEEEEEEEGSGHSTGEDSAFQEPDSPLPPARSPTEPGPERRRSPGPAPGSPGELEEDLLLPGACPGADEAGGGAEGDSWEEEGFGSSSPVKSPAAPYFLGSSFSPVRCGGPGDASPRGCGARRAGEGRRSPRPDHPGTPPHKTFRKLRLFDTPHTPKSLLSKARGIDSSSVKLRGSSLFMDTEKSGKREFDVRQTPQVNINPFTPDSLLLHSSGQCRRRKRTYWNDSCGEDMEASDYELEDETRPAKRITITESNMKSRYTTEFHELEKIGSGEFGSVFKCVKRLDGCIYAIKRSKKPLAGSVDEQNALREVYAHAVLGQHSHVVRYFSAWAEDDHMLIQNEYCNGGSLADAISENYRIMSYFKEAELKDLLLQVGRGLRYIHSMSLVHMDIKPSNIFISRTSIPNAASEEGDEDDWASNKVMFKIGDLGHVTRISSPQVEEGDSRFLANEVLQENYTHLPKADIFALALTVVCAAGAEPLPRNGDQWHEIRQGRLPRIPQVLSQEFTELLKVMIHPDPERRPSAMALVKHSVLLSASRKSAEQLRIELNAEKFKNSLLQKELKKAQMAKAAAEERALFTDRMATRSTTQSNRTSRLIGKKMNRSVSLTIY
T5 sequence (Q96SW2 whole entry): as the sequence (Q96SW2 whole entry) above
T5 sequence (Q16531 whole entry partner): as the sequence (Q16531 whole entry partner) above
In short: as §1

IKZF2 = target: T6, IKZF2 (Homo sapiens, UniProt Q96SW2+Q9UKS7); experiment: Western blot degradation of IKZF2 in hPBMCs (24 h)
T6 construct: The supernatant was aspirated as the extracted total cell protein; endogenous in cells; host or cells: human peripheral blood mononuclear cells (hPBMCs)
In short: as §1

Row | Compound | IKZF1 substrate protein remaining % (IKZF1) | GSPT1 substrate protein remaining % (GSPT1) | IKZF3 substrate protein remaining % (IKZF3) | CK1α substrate protein remaining % (CK1α) | WEE1 substrate protein remaining % (WEE1) | IKZF2 substrate protein remaining % (IKZF2)
1 | O=C1CCN(N2C(=O)c3ccc(CN4CC5CCC4CN5c4cccc(Cl)c4Cl)cc3C2=O)C(=O)N1 (stereo not drawn) [GT-07436, 5-((5-(2,3-dichlorophenyl)-2,5-diazabicyclo[2.2.2]octan-2-yl)methyl)-2-(2,4-dioxotetrahydropyrimidin-1(2H)-yl)isoindoline-1,3-dione] | B (80%< substrate protein remaining % ≤100%) | B (80%< substrate protein remaining % ≤100%) | B (80%< substrate protein remaining % ≤100%) | A (0% ≤ substrate protein remaining % ≤80%) | B (80%< substrate protein remaining % ≤100%) | A (0% ≤ substrate protein remaining % ≤80%)
2 | O=C1CCN(N2C(=O)c3ccc(CN4CC5CCC(C4)N5c4cccc(Cl)c4Cl)cc3C2=O)C(=O)N1 [GT-07437, 5-((8-(2,3-dichlorophenyl)-3,8-diazabicyclo[3.2.1]octan-3-yl)methyl)-2-(2,4-dioxotetrahydropyrimidin-1(2H)-yl)isoindoline-1,3-dione] | B (80%< substrate protein remaining % ≤100%) | A (0% ≤ substrate protein remaining % ≤80%) | B (80%< substrate protein remaining % ≤100%) | A (0% ≤ substrate protein remaining % ≤80%) | A (0% ≤ substrate protein remaining % ≤80%) | B (80%< substrate protein remaining % ≤100%)
3 | O=C1CCN(N2C(=O)c3ccc(CN4C5CCC4CN(c4cccc(Cl)c4Cl)C5)cc3C2=O)C(=O)N1 [GT-07438, 5-((3-(2,3-dichlorophenyl)-3,8-diazabicyclo[3.2.1]octan-8-yl)methyl)-2-(2,4-dioxotetrahydropyrimidin-1(2H)-yl)isoindoline-1,3-dione] | B (80%< substrate protein remaining % ≤100%) | A (0% ≤ substrate protein remaining % ≤80%) | B (80%< substrate protein remaining % ≤100%) | A (0% ≤ substrate protein remaining % ≤80%) | A (0% ≤ substrate protein remaining % ≤80%) | B (80%< substrate protein remaining % ≤100%)
4 | O=C1CCN(N2C(=O)c3ccc(CN4CCCN(c5cccc(Cl)c5Cl)CC4)cc3C2=O)C(=O)N1 [GT-07439, 5-((4-(2,3-dichlorophenyl)-1,4-diazepan-1-yl)methyl)-2-(2,4-dioxotetrahydropyrimidin-1(2H)-yl)isoindoline-1,3-dione] | B (80%< substrate protein remaining % ≤100%) | A (0% ≤ substrate protein remaining % ≤80%) | B (80%< substrate protein remaining % ≤100%) | A (0% ≤ substrate protein remaining % ≤80%) | B (80%< substrate protein remaining % ≤100%) | B (80%< substrate protein remaining % ≤100%)
5 | O=C1CCN(N2C(=O)c3ccc(CN4CC=C(c5ccnc(Cl)c5Cl)CC4)cc3C2=O)C(=O)N1 [GT-07440, 5-((2′,3′-dichloro-3,6-dihydro-[4,4′-bipyridin]-1(2H)-yl)methyl)-2-(2,4-dioxotetrahydropyrimidin-1(2H)-yl)isoindoline-1,3-dione] | B (80%< substrate protein remaining % ≤100%) | A (0% ≤ substrate protein remaining % ≤80%) | B (80%< substrate protein remaining % ≤100%) | A (0% ≤ substrate protein remaining % ≤80%) | A (0% ≤ substrate protein remaining % ≤80%) | B (80%< substrate protein remaining % ≤100%)
6 | O=C1CCN(N2C(=O)c3ccc(CN4CC=C(c5ccoc5)CC4)cc3C2=O)C(=O)N1 [GT-07442, 2-(2,4-dioxotetrahydropyrimidin-1(2H)-yl)-5-((4-(furan-3-yl)-3,6-dihydropyridin-1(2H)-yl)methyl)isoindoline-1,3-dione] | B (80%< substrate protein remaining % ≤100%) | A (0% ≤ substrate protein remaining % ≤80%) | A (0% ≤ substrate protein remaining % ≤80%) | B (80%< substrate protein remaining % ≤100%) | A (0% ≤ substrate protein remaining % ≤80%) | B (80%< substrate protein remaining % ≤100%)
7 | O=C1CCN(N2C(=O)c3ccc(CN4CC=C(c5cncc(Cl)c5)CC4)cc3C2=O)C(=O)N1 [GT-07491, 5-((5-chloro-3′,6′-dihydro-[3,4′-bipyridin]-1′ (2′H)-yl)methyl)-2-(2,4-dioxotetrahydropyrimidin-1(2H)-yl)isoindoline-1,3-dione] | B (80%< substrate protein remaining % ≤100%) | A (0% ≤ substrate protein remaining % ≤80%) | B (80%< substrate protein remaining % ≤100%) | B (80%< substrate protein remaining % ≤100%) | A (0% ≤ substrate protein remaining % ≤80%) | B (80%< substrate protein remaining % ≤100%)
8 | O=C1CCN(N2C(=O)c3ccc(CN4CC=C(c5ncccc5F)CC4)cc3C2=O)C(=O)N1 [GT-07492, 2-(2,4-dioxotetrahydropyrimidin-1(2H)-yl)-5-((3-fluoro-3′,6′-dihydro-[2,4′-bipyridin]-1′ (2′H)-yl)methyl)isoindoline-1,3-dione] | B (80%< substrate protein remaining % ≤100%) | B (80%< substrate protein remaining % ≤100%) | B (80%< substrate protein remaining % ≤100%) | A (0% ≤ substrate protein remaining % ≤80%) | B (80%< substrate protein remaining % ≤100%) | B (80%< substrate protein remaining % ≤100%)
9 | O=C1CCN(N2C(=O)c3ccc(CN4CCC(c5ccnc(F)c5F)CC4)cc3C2=O)C(=O)N1 [GT-07493, 5-((4-(2,3-difluoropyridin-4-yl)piperidin-1-yl)methyl)-2-(2,4-dioxotetrahydropyrimidin-1(2H)-yl)isoindoline-1,3-dione] | B (80%< substrate protein remaining % ≤100%) | B (80%< substrate protein remaining % ≤100%) | A (0% ≤ substrate protein remaining % ≤80%) | A (0% ≤ substrate protein remaining % ≤80%) | B (80%< substrate protein remaining % ≤100%) | B (80%< substrate protein remaining % ≤100%)
10 | O=C1CCN(N2C(=O)c3ccc(CN4CC=C(c5ccnc(F)c5F)CC4)cc3C2=O)C(=O)N1 [GT-07494, 5-((2′,3′-difluoro-3,6-dihydro-[4,4′-bipyridin]-1(2H)-yl)methyl)-2-(2,4-dioxotetrahydropyrimidin-1(2H)-yl)isoindoline-1,3-dione] | B (80%< substrate protein remaining % ≤100%) | B (80%< substrate protein remaining % ≤100%) | B (80%< substrate protein remaining % ≤100%) | A (0% ≤ substrate protein remaining % ≤80%) | A (0% ≤ substrate protein remaining % ≤80%) | B (80%< substrate protein remaining % ≤100%)
11 | O=C1CCN(N2Cc3cc(CN4CCC(c5ccon5)CC4)ccc3C2=O)C(=O)N1 [GT-07495, 1-(5-((4-(isoxazol-3-yl)piperidin-1-yl)methyl)-1-oxoisoindolin-2-yl)dihydropyrimidine-2,4(1H,3H)-dione] | B (80%< substrate protein remaining % ≤100%) | A (0% ≤ substrate protein remaining % ≤80%) | B (80%< substrate protein remaining % ≤100%) | A (0% ≤ substrate protein remaining % ≤80%) | B (80%< substrate protein remaining % ≤100%) | B (80%< substrate protein remaining % ≤100%)
12 | O=C1CCN(N2Cc3cc(CN4CCN(c5noc6cc(F)ccc56)CC4)ccc3C2=O)C(=O)N1 [GT-07496, 1-(5-((4-(6-fluorobenzo[d]isoxazol-3-yl)piperazin-1-yl)methyl)-1-oxoisoindolin-2-yl)dihydropyrimidine-2,4(1H,3H)-dione] | B (80%< substrate protein remaining % ≤100%) | A (0% ≤ substrate protein remaining % ≤80%) | B (80%< substrate protein remaining % ≤100%) | A (0% ≤ substrate protein remaining % ≤80%) | B (80%< substrate protein remaining % ≤100%) | B (80%< substrate protein remaining % ≤100%)
